In ChEMBL document CHEMBL4732203, “Synthesis of polyenylpyrrole derivatives with selective growth inhibitory activity against T-cell acute lymphoblastic leukemia cells” (Bioorg Med Chem Lett, 2021) one finds IC50 data, which are given here for 22 compounds.

Holding throughout (format): functional, cell-based
One assay concerns CCRF-CEM. The experiment in a line: Cytotoxicity against human CCRF-CEM cells assessed as reduction in cell viability incubated for 72 hrs.
Another assay relates to Raji. Put plainly: Cytotoxicity against human Raji cells assessed as reduction in cell viability incubated for 72 hrs.
The next assay has as its system HeLa. The experiment in a line: Cytotoxicity against human HeLa cells assessed as reduction in cell viability incubated for 3 days. The note with it: 72 h.
A further assay has as its system HSC-3. Put plainly: Cytotoxicity against human HSC-3 cells assessed as reduction in cell viability incubated for 3 days. The settings on record: HSC-3, 72 h.

With `CCOC(=O)/C=C/C=C/C=C/C=C/C=C/c1ccc[nH]1`, the IC50 (commonly the concentration needed to halve the response being measured) with CCRF-CEM is 450 nM; in the assay with Raji, more than 10 µM.

As for `CCOC(=O)/C=C/C=C/c1[nH]ccc1Cl`, the IC50 in the assay with CCRF-CEM is more than 10000 nM; in the assay on Raji, more than 10 µM.

With `O=C(/C=C/C=C/C=C/c1ccc[nH]1)c1ccccc1`, the half-inhibitory concentration (IC50) in the assay on CCRF-CEM came to 3070 nM; with Raji, 9.89 µM.

As to `CCOC(=O)/C=C/C=C/c1nccs1`, the 50% inhibitory concentration (IC50) in the assay with CCRF-CEM was more than 10000 nM; with Raji it was more than 10 µM.

Consider `O=C(/C=C/C=C/C=C/c1ccc[nH]1)OCc1ccccc1`, for which the IC50 is 830 nM in the assay with CCRF-CEM and more than 10 µM with Raji.

With `CCOC(=O)/C=C/C=C/C=C/c1nccs1`, the values for the half-inhibitory concentration (IC50) in the assay with CCRF-CEM and with Raji were 4500 nM and 4.35 µM, respectively.

For `CCOC(=O)/C=C/C=C/c1ccco1`, the figures for the IC50 with CCRF-CEM and in the assay on Raji were more than 10000 nM and more than 10 µM, respectively.

Take `CCOC(=O)/C=C/C=C/C=C/C=C/c1nccs1`: the results for the IC50 in the assay on CCRF-CEM and with Raji were more than 10000 nM and more than 10 µM, respectively.

With `CCOC(=O)/C=C/C=C/C=C/c1ccc[nH]1`, the results for the IC50 with CCRF-CEM and with Raji were 3670 nM and more than 10 µM, respectively.

`CCOC(=O)/C=C/C=C/C=C/c1ccco1`: the figures for the IC50 in the assay with CCRF-CEM and in the assay with Raji were more than 10000 nM and more than 10 µM, respectively.

For the compound `CCOC(=O)/C=C/C=C/C=C/C=C/c1cccn1C`, the concentration for half-maximal inhibition (IC50) in the assay with CCRF-CEM is more than 10000 nM; in the assay on Raji, more than 10 µM.

For `O=C(/C=C/C=C/C=C/C=C/c1[nH]ccc1Cl)OCc1ccccc1`, the results for the IC50 in the assay on CCRF-CEM and in the assay with Raji were 280 nM and 6.7 µM, respectively.

For the compound `O=C(/C=C/C=C/C=C/C=C/c1ccc[nH]1)OCc1ccccc1`, the IC50 with CCRF-CEM is 190 nM; in the assay with Raji, 1.4 µM.

Regarding `CCOC(=O)/C=C/C=C/C=C/c1[nH]ccc1Cl`, the IC50 in the assay on CCRF-CEM was 2420 nM; with Raji, more than 10 µM.

Take `COc1cc(\C(C)=C/C=C/C=C/C=C/c2[nH]ccc2Cl)oc(=O)c1C`: the IC50 in the assay with CCRF-CEM was 1760 nM; in the assay on Raji, more than 10 µM.

As for `CCOC(=O)/C=C/C=C/C=C/C=C/c1ccco1`, the IC50 in the assay with CCRF-CEM was more than 10000 nM; with Raji, more than 10 µM.

Take `CCOC(=O)/C=C/c1ccc[nH]1`: the IC50 with CCRF-CEM was more than 10000 nM; in the assay on Raji, more than 10 µM.

On to `CCOC(=O)/C=C/C=C/C=C/C=C/c1ccc[nH]1`, for which the IC50 was determined as 1340 nM in the assay with CCRF-CEM and 4.09 µM in the assay on Raji.

With `CCOC(=O)/C=C/C=C/C=C/C=C/c1[nH]ccc1Cl`, the IC50 in the assay on HeLa is more than 10 µM; in the assay on HSC-3, more than 10 µM; in the assay on CCRF-CEM, 270 nM; in the assay with Raji, more than 10 µM.

Take `COc1cc(/C=C/C=C/C=C/C=C/c2[nH]ccc2Cl)oc(=O)c1` [AUXARCONJUGATIN B]: the IC50 with CCRF-CEM is 510 nM; with Raji it was 5.74 µM.

As to `O=C(/C=C/C=C/C=C/C=C/c1ccc[nH]1)c1ccccc1`, the IC50 in the assay on CCRF-CEM was 720 nM; in the assay with Raji it was 5.99 µM.

As to `CCOC(=O)/C=C/C=C/c1ccc[nH]1`, the IC50 with CCRF-CEM is more than 10000 nM; with Raji it was more than 10 µM.
